Assay results reported in patent US4983328A, “N-(4-(3-aminopropyl)aminobutyl)-2-(ω-gua nidino-fatty-acid-amido(-2-substituted-ethanamide, salt thereof, and process for preparation thereof” (Bristol-Myers Company, priority 1981, dated 1991).
Values after ≈ are worked out from the molar mass of the structure shown.

Experiments:
[1] = tested on: mouse leukemia L-1210; assay: therapeutic effect on implanted cancer in mice (L-1210, survival over 30 days); format: in vivo, mouse (BDF1); conditions: L1210, ip, 720 h, 6 days; for responders at 1.56 mg/kg / response vs control in vivo at 1.56 mg/kg: 1.56 mg/kg/day i.p.; for responders at 3.13 mg/kg / response vs control in vivo at 3.13 mg/kg: 3.13 mg/kg/day i.p.; for responders at 6.25 mg/kg / response vs control in vivo at 6.25 mg/kg: 6.25 mg/kg/day i.p.; for responders at 12.5 mg/kg / response vs control in vivo at 12.5 mg/kg: 12.5 mg/kg/day i.p.; for responders at 25 mg/kg / response vs control in vivo at 25 mg/kg: 25 mg/kg/day i.p.
Description: BDF1 strain male mice (5 weeks old) were each inoculated intraperitoneally with 10^5 mouse leukemia L-1210 cells and treated once a day by intraperitoneal injection with a test compound dissolved in physiological saline for 6 consecutive days beginning from the day of inoculation. The mice were then observed for 30 days to determine the rate of prolongation of survival period=100×T/C=100×(average survival days of treated group)/(average survival days of control group).

[2] = chemical stability: retention (%) after heating at 60° C. for 4 hours, by HPLC; format: physicochemical
Method: The chemical stability of the present compound was evaluated by determining the retention (%) after heating at 60° C. for 4 hours. In Table 5 are shown the test results together with those for spergualin as reference. The retention was determined by means of high performance liquid chromatography (HPLC). The column was packed with Nucleosil® 5C18. The solvent used for spergualin was a mixture (6:94) of acetonitrile -0.01M sodium pentanesulfonate +0.01M Na2 HPO4 (pH 3), while that for the compounds of this invention was a mixture of acetonitrile -0.005M sodium pentanesulfonate ±0.01M Na2 HPO4 (pH 3). The mixture ratio in the latter case was varied for each particular compound. For instance, a mixing ratio of 10:90 was used for Compound No. 9, while that of 7:93 for Compound No. 22.

[3] = tested on: mouse leukemia L-1210 cells; assay: growth inhibitory activity to cancer cells in vitro (L-1210, 48 hours); format: cell-based; conditions: for inhibition at 1.25 µg/mL: L1210, 1.25 mcg/ml; for inhibition at 2.5 µg/mL: L1210, 2.5 mcg/ml; for inhibition at 5 µg/mL: L1210, 5 mcg/ml; for inhibition at 10 µg/mL: L1210, 10 mcg/ml; for inhibition at 20 µg/mL: L1210, 20 mcg/ml; for inhibition at 40 µg/mL: L1210, 40 mcg/ml; for inhibition at 80 µg/mL: L1210, 80 mcg/ml; for IC50: L1210, L-1210 cells, read-out: 50% inhibitory concentration
Method: DBA/2 mice were implanted with 10^5 mouse leukemia L-1210 cells. The ascites collected asceptically from the mice after 4 days of feeding was washed three times with physiological saline to obtain L-1210 cells, which was then suspended in RPMI 1640 culture medium [G. E. Moore, Journal of the American Medical Association, Vol. 199, 519 (1967); H. J. Morton, In Vitro, Vol. 6, 89 (1970)] to which 10% fetal calf serum and 5 μM 2-mercaptoethanol had been added, and the resulting suspension was diluted to 5×10^4 L-1210 cells per 0.9 ml. A microplate carrying 0.9 ml of the cell suspension and 0.1 ml of the culture medium containing the sample being tested was kept in a carbon dioxide incubator at 37° C. After 48 hours of cultivation, the number of cells was measured by means of a Coulter Counter (Coulter Electronics, Inc., U.S.A.) to obtain the growth inhibition (%)=(1--T/C )×100=[1-(number of grown cells in medium containing sample/(number of grown cells in control medium)]×100. The 50% growth inhibitory concentration was calculated from the values of growth inhibition at varied sample concentrations. The results of tests on typical compounds of this invention for the growth inhibition of L-1210 cells were as shown in Table 6.

[4] = cumulative toxicity in mice (maximum tolerated dose, once a day for 6 consecutive days); conditions: mouse, in vivo, ip, i.p. once a day for 6 consecutive days, total dose, read-out: Maximum Tolerated Dose (total dose not causing death)
Method: (§1) In Table 8 median lethal doses (LD50) of typical compounds of this invention are shown, measured in mice upon single intraperitoneal administration, as well as maximum tolerated doses in terms of total dose when a fixed amount per unit body weight was administered intraperitoneally to mice once a day for 6 consecutive days.
**Maximum value of the total dose not causing death when a fixed amount
per unit body weight is administered to mice once a day for 6 consecutive

[5] = acute toxicity in mice (single intraperitoneal administration); conditions: mouse, in vivo, ip; mice, single i.p.; read-out: LD50 (median lethal dose on single administration)
Method: as §1
*Median lethal dose on single administration.

[6] = read-out: Number of mice survived for 30 days (converted)
[7] = read-out: Prolongation of survival period (%), T/C × 100
[8] = read-out: Growth inhibition (%), (1-T/C) × 100

| SMILES | remaining at 4 h ([2]; pH 2, pH 2) | remaining at 4 h ([2]; pH 4, pH 4) | remaining at 4 h ([2]; pH 6, pH 6) | remaining at 4 h ([2]; pH 8, pH 8) | remaining at 4 h ([2]; pH 9, pH 9) | inhibition at 1.25 µg/mL [3, 8] | inhibition at 2.5 µg/mL [3, 8] | inhibition at 5 µg/mL [3, 8] | inhibition at 10 µg/mL [3, 8] | inhibition at 20 µg/mL [3, 8] | inhibition at 40 µg/mL [3, 8] | IC50 [3] | MTD [4] | LD50 [5] | also measured |
| --- | --- | --- | --- | --- | --- | --- | --- | --- | --- | --- | --- | --- | --- | --- | --- |
| COC(NC(=O)CCCCCCNC(=N)N)C(=O)NCCCCNCCCN (single isomer, unassigned; (-)) [Compound 9 (-), (-)-N-[4-(3-aminopropyl)aminobutyl]-2-(7-guanidinoheptanamido)-2-methoxyethanamide] |  |  |  |  |  |  |  |  |  |  |  |  |  |  | responders at 0.1 mg/kg ([1]; 0.10 mg/kg/day i.p., read-out: Number of mice survived for 30 days): 0%; response vs control in vivo at 0.1 mg/kg ([1]; 0.10 mg/kg/day i.p., read-out: Prolongation of survival period (%), T/C × 100): 110%; responders at 0.2 mg/kg ([1]; 0.20 mg/kg/day i.p., read-out: Number of mice survived for 30 days (converted)): 0%; response vs control in vivo at 0.2 mg/kg ([1]; 0.20 mg/kg/day i.p., read-out: Prolongation of survival period (%), T/C × 100): 127%; responders at 0.39 mg/kg ([1]; 0.39 mg/kg/day i.p., read-out: Number of mice survived for 30 days (converted)): 50%; response vs control in vivo at 0.39 mg/kg ([1]; 0.39 mg/kg/day i.p., read-out: Prolongation of survival period (%), T/C × 100): > 342%; responders at 0.78 mg/kg ([1]; 0.78 mg/kg/day i.p., read-out: Number of mice survived for 30 days (converted)): 50%; response vs control in vivo at 0.78 mg/kg ([1]; 0.78 mg/kg/day i.p., read-out: Prolongation of survival period (%), T/C × 100): > 370%; responders at 1.56 mg/kg [1, 6]: 50%; response vs control in vivo at 1.56 mg/kg [1, 7]: > 356%; responders at 3.13 mg/kg [1, 6]: 75%; response vs control in vivo at 3.13 mg/kg [1, 7]: > 411%; responders at 6.25 mg/kg [1, 6]: 25%; response vs control in vivo at 6.25 mg/kg [1, 7]: > 336%; responders at 12.5 mg/kg [1, 6]: 50%; response vs control in vivo at 12.5 mg/kg [1, 7]: > 390%; responders at 25 mg/kg [1, 6]: 0%; response vs control in vivo at 25 mg/kg [1, 7]: 0% |
| COC(NC(=O)C[C@@H](O)CCCCNC(=N)N)C(=O)NCCCCNCCCN (single isomer, unassigned; (-)) [22 (-), (-)-11-O-methylspergualin] | 79.7% | 100% | 100% | 100% | 97.6% |  |  |  |  |  |  |  |  |  | responders at 1.56 mg/kg [1, 6]: 0%; response vs control in vivo at 1.56 mg/kg [1, 7]: 177%; responders at 3.13 mg/kg [1, 6]: 20%; response vs control in vivo at 3.13 mg/kg [1, 7]: > 290%; responders at 6.25 mg/kg [1, 6]: 80%; response vs control in vivo at 6.25 mg/kg [1, 7]: > 400%; responders at 12.5 mg/kg [1, 6]: 80%; response vs control in vivo at 12.5 mg/kg [1, 7]: > 408%; responders at 25 mg/kg [1, 6]: 100%; response vs control in vivo at 25 mg/kg [1, 7]: > 423%; remaining at 4 h ([2]; pH 5, pH 5): 100%; remaining at 4 h ([2]; pH 7, pH 7): 100%; remaining at 4 h ([2]; pH 10, pH 10): 95.7% |
| N=C(N)NCCCCC(=O)NC(O)C(=O)NCCCCNCCCN (centres unmarked) [Compound 2, N-[4-(3-aminopropyl)aminobutyl]-2-(5-guanidinopentanamido)-2-hydroxyethanamide] |  |  |  |  |  | 9.6% | 30.5% | 46.9% | 69.5% | 77.6% | 79.6% | 5 µg/mL (≈ 13.9 µM) | > 300 mg/kg | > 50 mg/kg | inhibition at 80 µg/mL [3, 8]: 79.6% |
| COC(NC(=O)CCCCCNC(=N)N)C(=O)NCCCCNCCCN (centres unmarked) [Compound 8, N-[4-(3-aminopropyl)aminobutyl]-2-(6-guanidinohexanamido)-2-methoxyethanamide] |  |  |  |  |  |  |  | 33.2% | 38.1% | 46.8% | 53.5% | 28 µg/mL (≈ 72.3 µM) | > 150 mg/kg | 25 to 50 mg/kg | inhibition at 80 µg/mL [3, 8]: 66.3%; inhibition at 160 µg/mL ([3]; L1210, 160 mcg/ml, read-out: Growth inhibition (%), (1-T/C) × 100): 88.2% |
| N=C(N)NCCCCCC(O)CC(=O)NC(O)C(=O)NCCCCNCCCN (centres unmarked) [Compound 20, N-[4-(3-aminopropyl)aminobutyl]-2-(8-guanidino-3-hydroxyoctanamido)-2-hydroxyethanamide] |  |  |  |  |  | 17.2% | 20.1% | 28.9% | 30.7% | 45.7% |  | 27 µg/mL (≈ 64.7 µM) | > 300 mg/kg | > 50 mg/kg |  |
| N=C(N)NCCCC(=O)NC(O)C(=O)NCCCCNCCCN (centres unmarked) [Compound 1, N-[4-(3-aminopropyl)aminobutyl]-2-(4-guanidinobutanamido)-2-hydroxyethanamide] |  |  |  |  |  |  | 52.2% | 89.3% | 101% | 100% |  | 2.4 µg/mL (≈ 6.95 µM) | > 300 mg/kg | > 50 mg/kg |  |
| CCCCOC(NC(=O)CCCCCCNC(=N)N)C(=O)NCCCCNCCCN (centres unmarked) [Compound 13, N-[4-(3-aminopropyl)aminobutyl]-2-(7-guanidinoheptanamido)-2-butoxyethanamide] | 72.4% | 100% | 100% | 100% | 98% | 17% | 21.3% | 24% | 33.2% | 65.7% | 72.5% | 14 µg/mL (≈ 31.6 µM) |  |  | remaining at 4 h ([2]; pH 3, pH 3): 90.1%; remaining at 4 h ([2]; pH 10, pH 10): 96% |
| COC(NC(=O)C[C@@H](O)CCCCNC(=N)N)C(=O)NCCCCNCCCN (single isomer, unassigned; (+)) [Compound 22 (+), (+)-11-O-methylspergualin] |  |  |  |  |  |  |  |  |  |  |  |  |  |  | Stability [Retention (%)] ([2]; pH 2): 79.7%; Stability [Retention (%)] ([2]; pH 4): 100%; Stability [Retention (%)] ([2]; pH 5): 100%; Stability [Retention (%)] ([2]; pH 6): 100%; Stability [Retention (%)] ([2]; pH 7): 100%; Stability [Retention (%)] ([2]; pH 8): 100%; Stability [Retention (%)] ([2]; pH 9, 240 min): 100%; Stability [Retention (%)] ([2]; pH 10, 240 min): 95.6% |
| N=C(N)NCCCC[C@H](O)CC(=O)NC(O)C(=O)NCCCCNCCCN (single isomer, unassigned; (-)) [(-)-spergualin, reference compound] | 88.1% | 87.8% | 46.5% | 6.1% | 0% |  |  |  |  |  |  |  |  |  | remaining at 4 h ([2]; pH 3, pH 3): 88%; remaining at 4 h ([2]; pH 5, pH 5): 82.5%; remaining at 4 h ([2]; pH 7, pH 7): 12.6% |
| COC(NC(=O)CCCNC(=N)N)C(=O)NCCCCNCCCN (centres unmarked) [Compound 7, N-[4-(3-aminopropyl)aminobutyl]-2-(4-guanidinobutanamido)-2-methoxyethanamide] |  |  |  |  |  | 38.7% | 80.7% | 98.5% | 99.8% | 99.9% | 99.3% | 1.5 µg/mL (≈ 4.17 µM) |  |  |  |
